Test results from paper PMC4437027, “New ambuic acid derivatives from the solid culture of Pestalotiopsis neglecta and their nitric oxide inhibitory activity” (Scientific Reports, 2015).
Read-outs that look alike come from different tables or passages of the source. One block for each compound: values may come before it.

Assays:
[1] = test system: NO production in LPS-induced macrophages (RAW 264.7); assay: Inhibition of NO production in LPS-induced macrophages (RAW 264.7), nitrite accumulation; assay type: cell-based; settings: Mus musculus
Description: Mouse monocyte-macrophages RAW 264.7 (ATCC TIB-71) were purchased from the Chinese Academy of Science. RPMI 1640 medium, penicillin, streptomycin, and fetal bovine serum were purchased from Invitrogen (NewYork, USA). Lipopolysaccharide (LPS), DMSO, 3-(4,5-dimethylthiazol-2-yl)-2,5-diphenyl-2H-tetrazolium bromide (MTT), and hydrocortisone were obtained from Sigma Chemical Co. (Saint Louis, MO, U.S.A). RAW 264.7 cells were kept in RPMI 1640 medium supplemented with penicillin (100 U/mL), streptomycin (100 μg/mL), and 10% heat-inactivated fetal bovine serum at 37°C in a humidified incubator with 5% CO2 and 95% air. RAW 264.7 cells were passaged by trypsinization until they attained confluence and were used for assays during the exponential growth phase.
Compounds 1, 4–8 were dissolved in DMSO and were further diluted with the culture medium to give a final DMSO concentration of 0.2% in the assay. This concentration of DMSO had no significant effect on the growth of the cell line tested. The procedure of NO inhibition assay was conducted as previously reported. The level of NO was assessed by measuring the accumulation of nitrite (NO2^−) using the same method as previously reported. Cytotoxicity was measured using the 3-(4,5-dimethylthiazol-2-yl)-2.5-diphenyltetrazolium bromide (MTT) assay method. The inhibition rate was calculated based on the following equation (1).

[2] = test system: Cephalosporium gramineum; set-up: method as in PMID 11261579; settings: cited from earlier work
[3] = test system: Pythium ultimum; set-up: method as in PMID 11261579; settings: cited from earlier work
[4] = test system: Diplodia natelensis; set-up: method as in PMID 11261579; settings: cited from earlier work
[5] = test system: biosynthesis of cyclic peptide quormones in Enterococcus faecalis; settings: Gram-positive bacteria Enterococcus faecalis; cited from earlier work
[6] = test system: Helminthosporium sativum; set-up: method as in PMID 11261579; settings: cited from earlier work
[7] = test system: Fusarium solani; set-up: method as in PMID 11261579; settings: cited from earlier work
[8] = test system: Staphyococcus aureus; set-up: method as in PMID 19117486; settings: Gram-positive bacterium Staphyococcus aureus; cited from earlier work
[9] = test system: Fusarium cubense; set-up: method as in PMID 11261579; settings: cited from earlier work
[10] = RAW264.7, LPS-induced RAW 264.7 macrophages, read-out: NO inhibitory activity (IC50)

IC50 [1, 10]: > 100 µM
Structure (SMILES): CC(=CCC12OC1C(O)C(CO)=C(C=CCCCC(C)O)C2=O)C(=O)O (stereo not drawn) [Compound 1]

IC50 [1, 10]: 88.7 ± 6.74 µM
Structure (SMILES): CCCCC/C=C/C1=C(COC(C)=O)[C@@H](O)[C@H]2O[C@@]2(C/C=C(\C)C(=O)O)[C@H]1O [Compound 4]

IC50 [1, 10]: > 100 µM
Structure (SMILES): CCCCC/C=C/C1=C(CO)[C@@H](O)[C@H]2O[C@@]2(C/C=C(\C)C(=O)O)[C@H]1O [Compound 5]

IC50 [1, 10]: 11.2 ± 0.79 µM
Structure (SMILES): CCCCC/C=C/C1=C(COC(C)=O)[C@@H](O)[C@H]2O[C@@]2(C/C=C(\C)C(=O)O)C1=O [Compound 6]

Structure (SMILES): CCCCC/C=C/C1=C(CO)[C@H](O)[C@H]2O[C@@]2(C/C=C(\C)C(=O)O)C1=O [Compound 7, Ambuic acid]
Antifungal effect [2]: moderate antifungal effects
Antifungal effect [3]: moderate antifungal effects
Antifungal effect [4]: moderate antifungal effects
Inhibition of biosynthesis of cyclic peptide quormones [5]: inhibits the biosynthesis of cyclic peptide quormones
Antifungal effect [6]: moderate antifungal effects
Antifungal effect [7]: moderate antifungal effects
IC50 [1, 10]: 20.8 ± 1.41 µM
Antimicrobial effect [8]: antimicrobial
Antifungal effect [9]: moderate antifungal effects

IC50 [1, 10]: > 100 µM
Structure (SMILES): CCCCC/C=C/C1=C(CO)C(=O)C[C@](O)(C/C=C(\C)C(=O)O)[C@H]1O [Compound 8]

Structure (SMILES): C[C@]12CCC(=O)C=C1CC[C@@H]1[C@@H]2[C@@H](O)C[C@@]2(C)[C@H]1CC[C@]2(O)C(=O)CO [Hydrocortisone, hydrocortisone, reference compound]
IC50 ([1]; RAW264.7, read-out: NO inhibitory activity (IC50)): 53.7 ± 3.86 µM
